Measured values reported in patent US9492403B2, “Method of treating overactive bladder, not due to cancer, by administering at least one jasmonate” (Broady Health Sciences, LLC, priority 2010, dated 2016).

Experiment: Study in five subjects with urinary bladder dysfunction symptoms taking Jasmone once a day for 30 days
Assay type: in vivo, human
Description: Five subjects, 4 male and 1 female agreed to participate in the study. Subjects ranged in age from 55-73 with average age being 67. All participants experienced noticeable urinary bladder dysfunction symptoms including frequency, urgency, and reduced urine flow. Subjects took from 50 to 100 micrograms of Jasmone once a day for 30 days. At two weeks approximately ½ of the subjects experienced improved bladder function. […] For example, several subjects noted that before treatment they averaged 2 night time awakenings to urinate which was reduced to 1 or 0 subsequent to taking Jasmone. Other subjects had even greater improvement from an average of 3-4 night awakenings to urinate to 1. […] In addition several male subjects reported increased flow of discharge up to 100%.

CC/C=C\CC1=C(C)CCC1=O [Jasmone]
reduction of daytime bathroom visits (50 to 100 micrograms once a day for 30 days): approximately 50%
fraction of subjects who experienced improved bladder function (at two weeks, 50 to 100 micrograms of Jasmone once a day, five subjects aged 55-73): approximately ½
subject-reported improvements in frequency, urgency, and urine flow (by day thirty, 50 to 100 micrograms once a day): all subjects reported improvements in frequency, urgency, and urine flow
night awakenings to urinate after treatment (other subjects, average of 3-4 before treatment): 1
increased flow of discharge (several male subjects): up to 100%
"holding time" (urgency) after treatment (several patients, from approximately 10 minutes before treatment, i.e. during extended air travel): ~60 min
